# In publication PMC4501179, “Tuning properties and dynamic range of type 1 vomeronasal receptors” (Frontiers in Neuroscience, 2015):
# Target: T1, V1rj3 (Mus musculus, UniProt Q2TBB9)
# T1 sequence (Q2TBB9 1-308): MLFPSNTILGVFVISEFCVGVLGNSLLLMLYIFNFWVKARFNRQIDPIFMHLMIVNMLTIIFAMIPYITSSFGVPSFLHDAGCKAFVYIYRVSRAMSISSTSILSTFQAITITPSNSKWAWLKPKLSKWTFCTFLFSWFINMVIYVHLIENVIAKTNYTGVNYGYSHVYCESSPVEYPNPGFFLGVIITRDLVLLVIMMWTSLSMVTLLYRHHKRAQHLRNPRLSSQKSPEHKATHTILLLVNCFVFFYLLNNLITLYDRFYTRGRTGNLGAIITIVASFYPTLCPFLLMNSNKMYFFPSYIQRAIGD
# Assay: GCaMP2 calcium imaging of VNO slices from transgenic mice ectopically expressing V1rj3
row,SMILES,GCaMP2 calcium imaging of VNO slices from transgenic mice ectopically expressing
1,"C[C@]12CC[C@H]3[C@@H](CC=C4C[C@@H](OS(=O)(=O)O)CC[C@@]43C)[C@@H]1CC[C@@H]2OS(=O)(=O)O [A7864, 5-androsten-3β, 17β-diol-disulfate]",10^−5 M
2,"C[C@]12CC[C@@H]3c4ccc(OS(=O)(=O)O)cc4CC[C@H]3[C@@H]1CC[C@@H]2OS(=O)(=O)O [E1050, 1, 3, 5(10)-estratrien-3, 17β-diol disulfate]",10^−10 M
3,"C[C@]12CC[C@@H]3c4ccc(OS(=O)(=O)O)cc4CC[C@H]3[C@@H]1CC[C@@H]2O [E1100, 17β-estradiol 3-sulfate]",10^−5 M
4,"C[C@]12CC[C@@H]3c4ccc(O)cc4CC[C@H]3[C@@H]1CC[C@@H]2OS(=O)(=O)O [E1103, 1,3, 5(10)-estratrien-3, 17β-diol 17-sulfate]",10^−10 M
